According to patent publication US20110033946A1, “DETECTION OF SHORT-CHAIN FATTY ACIDS IN BIOLOGICAL SAMPLES” (HEMAQUEST PHARMACEUTICALS, INC., priority 2009, published 2011):
Several values for one entry are separate records, joined by “and”; a condition that tells them apart may be missing. Equal entries are not always repeated. Where two headings read alike, the source gives them in different places.

How the values were obtained:
[1] = assay type: physicochemical, human; conditions: for Extract freezer stability, Mean concentration / Extract freezer stability, RE % (mean vs nominal): human, 8 h
Experimental: (§1) The following samples were also analyzed either in conjunction with one of the precision and accuracy runs or in one of the additional validation runs. Samples from six lots of control human plasma for specificity. Samples from six lots of control human plasma fortified with internal standard for specificity. Two concentration levels of unextracted QC-samples in triplicate (solvent standards) were analyzed for the evaluation of the recovery of sodium 2,2-dimethylbutyrate and DMV in human plasma. Two levels of QC samples (Low QC and High QC in triplicate) were subjected to three freeze/thaw cycles at approximately −70° C. prior to extraction to evaluate freeze/thaw stability. Two levels of QC samples (Low QC and High QC in triplicate) were placed on the bench top for approximately 17 hours prior to extraction for the evaluation of the bench top stability. Triplicate low QC samples and triplicate high QC samples were stored for one month and three months in a freezer at approximately −70° C., and then extracted and analyzed to evaluate long term stability in human plasma. Two levels of extracted QC samples (Low QC and High QC) were re-analyzed after approximately 71 hours in the autosampler at room temperature to evaluate the extract autosampler stability. Two levels of extracted QC samples (Low QC and High QC) were re-analyzed after approximately 8 hours in the freezer at approximately −20° C. to evaluate the extract freeze stability. Three aliquots of a dilution QC sample diluted 10-fold. Triplicate dilutions of the old stock solution (stored at approximately 4° C.) and new stock solutions prepared at intervals of two weeks and one month. Statistical calculations in the report tables were calculated from unrounded concentration values taken directly from the raw data. The concentration values were rounded for display purposes.
QC-Low and QC-High extract samples in triplicate were analyzed and then stored in a −20° C. freezer for approximately 8 hours. These QC samples were then re-analyzed to evaluate the extract freezer stability. The CV % values for the QC-Low and QC-High stability samples are 8.6% and 1.2%, respectively. To calculate the RE %, the measured mean concentration was compared to the nominal concentration. The RE % values for the QC-Low and QC-High stability samples are −6.3% and −13.0%, respectively.

[2] = Extract autosampler stability (human plasma extract); assay type: physicochemical; conditions: for Extract autosampler stability, Mean concentration / Extract autosampler stability, RE % (mean vs nominal) / Extract autosampler stability, concentration found (replicate): at least 71 hours in autosampler, ambient
Experimental: as §1
After extraction, the QC samples were analyzed and left in the autosampler for at least 71 hours, then re-injected onto the LC-MS/MS. Triplicate QC-Low and QC-High samples were analyzed for the autosampler stability determination. The CV % values for the QC-Low and QC-High stability samples are 7.5% and 6.4%, respectively. To calculate the RE %, the measured mean concentration was compared to the nominal concentration. The RE % values for the QC-Low and QC-High stability samples are 1.9% and 4.6%, respectively.

[3] = Storage stability of quality control sample in human urine at −20° C.; assay type: physicochemical; conditions: storage temperature of −20° C.
Experimental: In method I, the mobile phase of liquid chromatography was run on 0.1% formic acid in acetonitrile, and the elution volume was 10 ul. In method II, the mobile phase was run in 0.1% formic acid in methanol/water (98/2, volume to volume), and the elution volume was 5 ul.

[4] = Freeze/thaw cycle stability in human plasma; assay type: physicochemical; conditions: three freeze/thaw cycles at approximately −70° C.
Experimental: as §1
The stability of sodium 2,2-dimethylbutyrate in human plasma was evaluated at approximately −70° C. for three cycles using QC-Low and QC-High samples in triplicate. The freeze time was at least 12 to 24 hours, with a minimum thaw time of one hour. The CV % values for the QC-Low and QC-High stability samples are 3.3% and 9.8%, respectively. To calculate the RE %, the measured mean concentration was compared to the nominal concentration. The RE % values for the QC-Low and QC-High stability samples are 2.3% and −5.5%, respectively.

[5] = Bench top stability in rat plasma; assay type: physicochemical; conditions: for Bench top stability, RE % (mean vs nominal): room temperature approximately 12.5 hours
Experimental: For the remaining validation tests, a calibration curve and triplicates QCs at the low, mid and high levels were analyzed with each sample set. The following samples were also analyzed either in conjunction with one of the precision and accuracy runs or in one of the additional validation runs: Samples from six lots of control rat plasma for specificity; Samples from six lots of control rat plasma fortified with internal standard for specificity; Two concentration levels of unextracted QC-samples in triplicate (solvent standards) were analyzed for the evaluation of the recovery of sodium 2,2-dimethylbutyrate and DMV in rat plasma; Two levels of QC samples (Low QC and High QC in triplicate) were subjected to three freeze/thaw cycles at approximately −70° C. prior to extraction to evaluate freeze/thaw stability; Two levels of QC samples (Low QC and High QC in triplicate) were placed on the bench top for approximately 17 hours prior to extraction for the evaluation of the bench top stability; Triplicate low QC samples and triplicate high QC samples were stored for one month and three months in a freezer at approximately −70° C., and then extracted and analyzed to evaluate long term stability in rat plasma; Three aliquots of a dilution QC sample diluted 10-fold.
Bench top stability was evaluated at room temperature for approximately 12.5 hours. Triplicate QC-Low and QC-High samples were extracted and analyzed after these storage conditions. The CV % values for the QC-Low and QC-High stability samples are 6.3% and 11.7%, respectively. To calculate the RE %, the measured mean concentration was compared to the nominal concentration. The RE % values for the QC-Low and QC-High stability samples are 7.6% and 9.1%, respectively.

[6] = Short-term stability in human urine at room temperature; assay type: physicochemical; conditions: unextracted, bench-top light, six hours, 0.3, 19 and 38 μg/ml
Experimental: The applicability of the testing methodology to analyze samples stored under different conditions was analyzed. First, to assess short-term stability of DMB in human urine, samples at 0.3, 19 and 38 μg/ml, 92.3% of DMB were maintained unextracted at room temperature and at bench-top light levels for six hours. […] Second, to assess freeze/thaw stability of DMB in human urine, samples at 0.3, 19 and 38 μg/ml, 92.3% of DMB were stored at −70° C. and thawed. This process was repeated twice and samples after each freezing were analyzed for DMB as described. For each concentration and each freezing/thawing sample, the % CV was no more than 15%.

For `CCC(C)(C)C(=O)[O-].[Na+]` [Sodium 2,2-Dimethylbutyrate], the “Time stable in the extract in the freezer” value ([1]; human plasma extract, freezer at −20° C.) was “at least 8 hours”, the “Extract freezer stability, Mean concentration” value ([1]; 0.6 μg/mL) was 0.562 µg/mL and the “Extract freezer stability, RE % (mean vs nominal)” value ([1]; 0.6 μg/mL) was −6.3%. For the same compound, the “Extract freezer stability, Mean concentration” value ([1]; 40 μg/mL) was 34.8 µg/mL, the “Extract freezer stability, RE % (mean vs nominal)” value ([1]; 40 μg/mL) was −13.0% and the “Time stable in the extract in the autosampler” value ([2]; ambient storage in the autosampler) was “at least 71 hours”. For the same compound, the “Extract autosampler stability, Mean concentration” value ([2]; QC-High, nominal 40.0 μg/mL) was 41.8 µg/mL, the “Extract autosampler stability, RE % (mean vs nominal)” value ([2]; QC-High, nominal 40.0 μg/mL) was 4.6% and the “Extract autosampler stability, concentration found (replicate)” value ([2]; QC-High, nominal 40.0 μg/mL) was 42.9 µg/mL and 43.8 µg/mL and 38.8 µg/mL. The “Extract autosampler stability, Mean concentration” value ([2]; QC-Low, nominal 0.60 μg/mL) was 0.611 µg/mL, the “Extract autosampler stability, RE % (mean vs nominal)” value ([2]; QC-Low, nominal 0.60 μg/mL) was 1.9% and the “Extract autosampler stability, concentration found (replicate)” value ([2]; QC-Low, nominal 0.60 μg/mL) was 0.663 µg/mL and 0.575 µg/mL and 0.596 µg/mL. For the same compound, the “Time quality control sample is stable” value [3] was “at least 111 days”, the “Stability after freeze/thaw cycles” value [4] was “stable” and the “Freeze/thaw cycle stability, Mean concentration” value ([4]; QC-High, nominal 40.0 μg/mL) was 37.8 µg/mL. For the same compound, the “Freeze/thaw cycle stability, RE % (mean vs nominal)” value ([4]; QC-High, nominal 40.0 μg/mL) was −5.5%, the “Freeze/thaw cycle stability, concentration found (replicate)” value ([4]; QC-High, nominal 40.0 μg/mL) was 41.9 µg/mL and 36.8 µg/mL and 34.7 µg/mL and the “Freeze/thaw cycle stability, Mean concentration” value ([4]; QC-Low, nominal 0.60 μg/mL) was 0.614 µg/mL. The “Freeze/thaw cycle stability, RE % (mean vs nominal)” value ([4]; QC-Low, nominal 0.60 μg/mL) was 2.3%, the “Freeze/thaw cycle stability, concentration found (replicate)” value ([4]; QC-Low, nominal 0.60 μg/mL) was 0.615 µg/mL and 0.593 µg/mL and 0.633 µg/mL and the “Time stable on bench top” value ([5]; ambient bench top storage) was “approximately 12.5 hours”. The “Measured concentration, QC-Low” value ([5]; bench top room temperature, nominal 0.60 μg/mL, individual replicates) was 0.600 µg/mL and 0.677 µg/mL and 0.660 µg/mL, the “Measured concentration, QC-High” value ([5]; bench top room temperature, nominal 40.0 μg/mL, individual replicates) was 45.6 µg/mL and 37.9 µg/mL and 47.4 µg/mL and the “Mean concentration, QC-Low” value ([5]; bench top, nominal 0.60 μg/mL) was 646 ng/mL. For the same compound, the “RE %, QC-Low” value ([5]; bench top, nominal 0.60 μg/mL) was 7.6%, the “Mean concentration, QC-High” value ([5]; bench top, nominal 40.0 μg/mL) was 43600 ng/mL and the “RE %, QC-High” value ([5]; bench top, nominal 40.0 μg/mL) was 9.1%. For the same compound, the “Bench top stability, RE % (mean vs nominal)” value ([5]; QC-High) was 9.1%, the “Bench top stability, RE % (mean vs nominal)” value ([5]; QC-Low) was 7.6% and the “Short-term stability in human urine” value [6] was “stable”.
